Assay results from PubChem BioAssay (NCI).
Values joined by “and” are separate entries in the source; they are usually repeats but may differ in a detail not shown here. Equal entries are not always repeated.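 Tested at 5 concentrations; 48 h exposure; 96-well plates; endpoints linearly interpolated, else capped at highest concentration. Abbreviation: GI50, concentration required for 50% inhibition of growth. The concentration for full growth arrest is given as TGI.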

How the values were obtained:
Assay in all cases: NCI anticancer screen, dose series, 48 h
[1] = system: HCT-15 colon
[2] = system: SK-MEL-5 melanoma
[3] = system: A498 renal
[4] = system: NCI-H23 lung
[5] = system: RPMI-8226 leukemia
[6] = system: EKVX NSCLC
[7] = system: U251 CNS
[8] = system: MCF7 breast
[9] = system: HCC-2998 colon

## CC(=N/NC(=S)N1CCCCCC1)/C(C)=N\NC(=S)N1CCCCCC1
[1]
  TGI: 13.6 µM
[2]
  TGI: 10.8 µM
[3]
  TGI: 3.47 µM
[4]
  TGI: 12.6 µM
[5]
  TGI: > 100 µM
[6]
  TGI: 10.6 µM
[7]
  TGI: 5.73 µM
[8]
  TGI: > 25.1 µM
[9]
  TGI: 18.6 µM

## O=C(O)c1cc(N=Nc2ccc([N+](=O)[O-])cc2)ccc1O
[1]
  TGI: > 100 µM
[2]
  TGI: > 100 µM
[3]
  TGI: 46.6 µM
[4]
  TGI: > 100 µM
[5]
  TGI: 53.3 µM
[6]
  TGI: > 100 µM
[7]
  TGI: 68.4 µM
[8]
  TGI: 87.1 µM
[9]
  TGI: 44.7 µM

## COc1ccc(/C=C2/N=C(N/N=C\C(O)C(O)C(O)CO)NC2=O)cc1 (stereo unspecified)
[1]
  TGI: > 100 µM
[2]
  GI50: > 100 µM and 41.6 µM
  TGI: > 100 µM
[3]
  GI50: > 100 µM and 32.6 µM
  TGI: > 100 µM
[4]
  GI50: > 100 µM and 42.1 µM
  TGI: > 100 µM
[5]
  TGI: > 100 µM
[6]
  TGI: > 100 µM
[7]
  TGI: > 100 µM
[8]
  TGI: > 100 µM
[9]
  TGI: > 100 µM

## COc1ccc2c(c1)CC[C@@H]1[C@@H]2CC[C@]2(C)/C(=N/OCCN3CCCC3)CC[C@@H]12
[1]
  TGI: 2.65 µM
[2]
  TGI: 3.41 µM
[3]
  TGI: 9.9 µM
[4]
  TGI: 19.5 µM
[5]
  TGI: 3.65 µM
[6]
  TGI: 12.3 µM
[7]
  TGI: 10.4 µM
[8]
  TGI: 8.92 µM
[9]
  TGI: 3.49 µM

## C/C=C1\CC(C(=O)OCC)CCCCCCC1=O (stereo unspecified)
[1]
  TGI: > 100 µM
[2]
  TGI: > 100 µM
[3]
  TGI: > 100 µM
[4]
  TGI: > 100 µM
[6]
  TGI: > 100 µM
[7]
  TGI: > 100 µM
[8]
  TGI: > 100 µM

## N/C(=N\N=C\c1cc2ccccc2s1)c1cnccn1
[1]
  TGI: > 100 µM
[2]
  TGI: > 100 µM
[3]
  TGI: > 100 µM
[4]
  TGI: > 100 µM
[5]
  TGI: > 100 µM
[6]
  TGI: > 100 µM
[7]
  TGI: > 100 µM
[8]
  TGI: > 100 µM

## Cc1cc(OCc2nc(N)nc(N)c2-c2ccc(Cl)c(Cl)c2)ccc1[N+](=O)[O-]
[1]
  TGI: 27.4 µM
[2]
  TGI: 15 µM
[3]
  TGI: 1.3 µM
[4]
  TGI: 4.79 µM
[5]
  TGI: > 78.7 µM
[6]
  TGI: 45 µM
[7]
  TGI: 12.3 µM
[8]
  TGI: 8.15 µM

## Cc1ccc(S(=O)(=O)NC(=O)Nc2c(S(N)(=O)=O)cc(S(N)(=O)=O)c(Cl)c2Cl)cc1
[1]
  TGI: > 100 µM
[2]
  TGI: > 100 µM
[3]
  TGI: > 100 µM
[4]
  TGI: > 100 µM
[5]
  TGI: > 100 µM
[6]
  TGI: > 100 µM
[7]
  TGI: > 100 µM
[8]
  TGI: > 100 µM
[9]
  TGI: > 100 µM

## Cc1nc2cn3c(c2c(=O)[nH]1)CCCCC3
[1]
  TGI: > 100 µM
[2]
  TGI: > 100 µM
[3]
  TGI: > 100 µM
[4]
  TGI: > 100 µM
[5]
  TGI: > 100 µM
[6]
  TGI: > 100 µM
[7]
  TGI: > 100 µM
[8]
  TGI: > 100 µM
[9]
  TGI: > 100 µM

## Cc1c(C)c2c(c(C)c1OC(=O)CCC(=O)[O-])CCC(C)(CCCCCCCCCCC[P+](c1ccccc1)(c1ccccc1)c1ccccc1)O2 (stereo unspecified)
[1]
  GI50: 0.977 µM
  TGI: 3.02 µM
[2]
  GI50: 0.0904 µM
  TGI: 0.182 µM
[3]
  GI50: 0.0851 µM
  TGI: 0.41 µM
[4]
  GI50: 0.159 µM
  TGI: 0.671 µM
[5]
  GI50: 0.0151 µM
  TGI: 0.148 µM
[6]
  GI50: 0.222 µM
  TGI: 1.45 µM
[8]
  GI50: 0.161 µM
  TGI: 0.815 µM
[9]
  GI50: 0.214 µM
  TGI: 0.809 µM

## O=S(=O)(O)c1ccc2c(N=Nc3cccc4ccccc34)c(O)ccc2c1
[1]
  TGI: > 100 µM
[2]
  TGI: > 100 µM
[3]
  TGI: > 100 µM
[4]
  TGI: > 100 µM
[5]
  TGI: > 100 µM
[6]
  TGI: > 100 µM
[7]
  TGI: > 100 µM

## Cc1ccc(C2(O)c3ccccc3C(=O)N(C)C2(O)c2ccc(C)cc2)cc1 (stereo unspecified)
[1]
  TGI: > 100 µM
[2]
  TGI: > 100 µM
[3]
  TGI: > 100 µM
[4]
  TGI: > 100 µM
[5]
  TGI: > 100 µM
[6]
  TGI: > 100 µM
[7]
  TGI: 40.1 µM
[8]
  TGI: > 100 µM
[9]
  TGI: > 100 µM

## COc1ccccc1C1C2=C(COC2=O)Oc2cc3c(cc21)OCO3 (stereo unspecified)
[1]
  TGI: > 84.6 µM
[2]
  TGI: > 100 µM
[3]
  TGI: 15.4 µM
[4]
  TGI: > 100 µM
[5]
  TGI: > 59.2 µM
[6]
  TGI: > 42.8 µM
[7]
  TGI: > 100 µM
[8]
  TGI: > 89.9 µM
[9]
  TGI: > 37.6 µM

## O=Cc1c2c(cc3c1CC1(C3)Cc3cc4c(c(C=O)c3C1)CCCC4)CCCC2
[1]
  TGI: > 31.6 µM
[2]
  TGI: > 31.6 µM
[4]
  TGI: > 31.6 µM
[5]
  TGI: 30.3 µM
[6]
  TGI: > 31.6 µM
[7]
  TGI: > 31.6 µM
[8]
  TGI: > 31.6 µM
[9]
  TGI: > 31.6 µM

## Cc1cccc2c(N)c3cccc(C(=O)NCC[N+](C)(C)Cc4ccc([N+](=O)[O-])n4C)c3nc12
[1]
  TGI: > 78 µM
[2]
  TGI: 59 µM
[3]
  TGI: > 63.1 µM
[4]
  TGI: > 65.1 µM
[5]
  TGI: 52.5 µM
[6]
  TGI: > 100 µM
[7]
  TGI: 63.4 µM
[8]
  TGI: > 62.5 µM
[9]
  TGI: 55.8 µM

## COc1ccccc1-n1cnc2c1NC(C)(C)N=C2C(N)=O
[1]
  TGI: > 100 µM
[2]
  TGI: > 100 µM
[3]
  TGI: > 100 µM
[4]
  TGI: > 100 µM
[5]
  TGI: > 100 µM
[6]
  TGI: > 100 µM
[7]
  TGI: > 100 µM
[8]
  TGI: > 100 µM
[9]
  TGI: > 100 µM

## CC(=O)Nc1ccc(NC(=O)CC(=O)Nc2ccc(NC(C)=O)cc2)cc1
[1]
  TGI: 61.9 µM
[2]
  TGI: > 100 µM
[3]
  TGI: > 100 µM
[4]
  TGI: > 100 µM
[5]
  TGI: > 100 µM
[6]
  TGI: > 100 µM
[7]
  TGI: > 100 µM
[8]
  TGI: > 100 µM
[9]
  TGI: 36.7 µM

## O=c1oc2ccc([N+](=O)[O-])cc2nc1/C=C(\O)c1ccccc1
[1]
  TGI: > 100 µM
[2]
  TGI: > 100 µM
[3]
  TGI: > 100 µM
[4]
  TGI: > 100 µM
[5]
  TGI: > 100 µM
[6]
  TGI: > 100 µM
[7]
  TGI: > 100 µM
[8]
  TGI: > 100 µM
[9]
  TGI: > 100 µM

## COC(=O)[C@H](CNC(=O)/C=C/c1ccc(OC(C)=O)c(OC(C)=O)c1)NC(=O)/C=C/c1ccc(OC(C)=O)c(OC(C)=O)c1
[1]
  TGI: > 100 µM
[2]
  TGI: > 100 µM
[3]
  TGI: > 100 µM
[4]
  TGI: > 100 µM
[5]
  TGI: > 100 µM
[6]
  TGI: > 100 µM
[7]
  TGI: > 100 µM
[8]
  TGI: > 100 µM
[9]
  TGI: > 100 µM

## Cc1cc(C)cc(Nc2nnc3n2S(=O)(=O)c2cc(C)c(Cl)cc2S3)c1
[1]
  TGI: 28.3 µM
[2]
  TGI: 24.7 µM
[3]
  TGI: 29.6 µM
[4]
  TGI: 19.2 µM
[5]
  TGI: 42 µM
[6]
  TGI: 52.2 µM
[7]
  TGI: 22.9 µM
[8]
  TGI: 36 µM
[9]
  TGI: 16.6 µM

## c1ccc(-c2csc3c2-n2cccc2C3N2CCCC2)cc1 (stereo unspecified)
[1]
  TGI: > 100 µM
[2]
  TGI: 22.6 µM
[3]
  TGI: > 100 µM
[4]
  TGI: > 100 µM
[5]
  TGI: > 100 µM
[6]
  TGI: > 100 µM
[7]
  TGI: > 100 µM
[8]
  TGI: > 100 µM
[9]
  TGI: > 100 µM

## N=c1c2sc3nc4ccccc4n3c2ncn1Cc1ccccc1
[1]
  TGI: > 100 µM
[2]
  TGI: > 100 µM
[3]
  TGI: > 100 µM
[4]
  TGI: > 100 µM
[5]
  TGI: > 100 µM
[6]
  TGI: > 100 µM
[7]
  TGI: > 100 µM
[8]
  TGI: > 100 µM
[9]
  TGI: > 100 µM
